Data from patent US9227977B2, “Phosphoinositide 3-kinase inhibitors” (RESPIVERT LTD., priority 2013, dated 2016).
Read-outs that look alike come from different tables or passages of the source. One block for each compound: values may come before it.

Key:
[1] = tested on: cigarette smoke-induced cell accumulation and biomarkers in murine BALF; test: Cigarette smoke model; assay type: in vivo, mouse; settings: dose used for co-administration
Protocol: A/J mice (males, 5 weeks old) were exposed to cigarette smoke (4% cigarette smoke, diluted with compressed air) for 30 min/day for 11 days using a Tobacco Smoke Inhalation Experiment System for small animals (Model SIS-CS; Sibata Scientific Technology, Tokyo, Japan). Test substances were administered once daily for 3 days after the final cigarette smoke exposure (intra-nasal dose comprising 35 μL of solution in 50% DMSO/isotonic saline).
At 12 hr after administration of the last dose, animals were anesthetized, the trachea was cannulated and bronchial alveolar lavage (BAL) was carried out by the instillation into and then withdawal from the lungs, of PBS (100 mL/kg). Total cell numbers in the BALF samples were measured using a haemocytometer under a phase-contrast microscope. The proportions of alveolar macrophages and neutrophils were determined by FACS analysis using anti-mouse MOMA2-FITC (macrophage) or anti-mouse 7/4 (neutrophil).
Cells were suspended in PBS and were incubated with anti-MOMA2-FITC (2 μg/mL, Catalogue no SM065F, Acris Antibodies GmbH, Herford, Germany) or anti-7/4-FITC (2 μg/mL, Catalogue no CL050F, Acris Antibodies GmbH, Herford, Germany) for 30 min at 30° C., and also counterstained with propidium iodide (2 μg/mL) to allow exclusion of necrotic cells. The cells were washed with PBS, and transferred to FACS tubes. Samples was set in a flow cytometer (ALTRA II; Beckman Coulter Japan, Tokyo, Japan), and a single-parameter FL2 [PMT2] (FITC) histogram with log x-axis was plotted to illustrate relative intensity of FITC.
Data files are stored for subsequent analysis using Kaluza analysis software (ver. 1.2) to calculate the proportion of each cell type. The levels of CXCL1(KC), MCP1, TNFα, IL-17 or osteopontin in BALF were determined using Quentikine® mouse KC, MCP1, TNFα, IL-17 or osteopontin ELISA kit (R&D systems, Inc., Minneapolis, Minn., USA). The presence of malondialdehyde was measured using OxiSelect® TBARS Assay Kit (MDA Quantitation; Cell Biolabs Inc, San Diego, Calif., USA).

[2] = biological target: PI3K δ (Homo sapiens (Human), UniProt O00329); test: PI3K enzyme inhibition assay (HTRF TR-FRET); assay type: biochemical
Sequence of PI3K δ (O00329 whole entry, species assumed): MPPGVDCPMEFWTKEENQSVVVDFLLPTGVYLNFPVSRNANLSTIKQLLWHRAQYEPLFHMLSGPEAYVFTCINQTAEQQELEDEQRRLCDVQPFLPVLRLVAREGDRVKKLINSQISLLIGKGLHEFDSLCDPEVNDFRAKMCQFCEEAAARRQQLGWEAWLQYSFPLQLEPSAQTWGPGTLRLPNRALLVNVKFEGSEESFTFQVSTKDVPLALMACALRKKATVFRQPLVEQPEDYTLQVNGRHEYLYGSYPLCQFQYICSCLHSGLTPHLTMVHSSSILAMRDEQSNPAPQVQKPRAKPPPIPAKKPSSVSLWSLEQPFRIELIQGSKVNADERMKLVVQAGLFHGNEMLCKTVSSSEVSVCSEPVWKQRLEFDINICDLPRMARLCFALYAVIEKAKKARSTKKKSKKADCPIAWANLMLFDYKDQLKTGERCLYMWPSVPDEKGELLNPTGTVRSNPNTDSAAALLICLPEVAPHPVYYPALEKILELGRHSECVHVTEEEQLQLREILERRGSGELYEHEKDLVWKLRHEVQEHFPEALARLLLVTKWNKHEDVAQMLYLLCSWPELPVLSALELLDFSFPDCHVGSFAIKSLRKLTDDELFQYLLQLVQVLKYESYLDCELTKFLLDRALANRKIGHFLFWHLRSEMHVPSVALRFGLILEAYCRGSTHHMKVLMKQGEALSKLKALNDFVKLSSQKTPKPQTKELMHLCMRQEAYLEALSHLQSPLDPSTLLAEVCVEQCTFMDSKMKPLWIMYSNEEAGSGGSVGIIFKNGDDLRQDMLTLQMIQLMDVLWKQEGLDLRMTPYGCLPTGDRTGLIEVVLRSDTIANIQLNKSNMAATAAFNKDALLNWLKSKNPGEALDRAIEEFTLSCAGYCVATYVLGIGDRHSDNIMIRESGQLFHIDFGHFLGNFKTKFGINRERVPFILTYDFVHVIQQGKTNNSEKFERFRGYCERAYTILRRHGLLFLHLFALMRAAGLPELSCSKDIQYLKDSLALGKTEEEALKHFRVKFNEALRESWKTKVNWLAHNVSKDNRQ
Sequence of PI3K δ (P27986 whole entry partner, species assumed): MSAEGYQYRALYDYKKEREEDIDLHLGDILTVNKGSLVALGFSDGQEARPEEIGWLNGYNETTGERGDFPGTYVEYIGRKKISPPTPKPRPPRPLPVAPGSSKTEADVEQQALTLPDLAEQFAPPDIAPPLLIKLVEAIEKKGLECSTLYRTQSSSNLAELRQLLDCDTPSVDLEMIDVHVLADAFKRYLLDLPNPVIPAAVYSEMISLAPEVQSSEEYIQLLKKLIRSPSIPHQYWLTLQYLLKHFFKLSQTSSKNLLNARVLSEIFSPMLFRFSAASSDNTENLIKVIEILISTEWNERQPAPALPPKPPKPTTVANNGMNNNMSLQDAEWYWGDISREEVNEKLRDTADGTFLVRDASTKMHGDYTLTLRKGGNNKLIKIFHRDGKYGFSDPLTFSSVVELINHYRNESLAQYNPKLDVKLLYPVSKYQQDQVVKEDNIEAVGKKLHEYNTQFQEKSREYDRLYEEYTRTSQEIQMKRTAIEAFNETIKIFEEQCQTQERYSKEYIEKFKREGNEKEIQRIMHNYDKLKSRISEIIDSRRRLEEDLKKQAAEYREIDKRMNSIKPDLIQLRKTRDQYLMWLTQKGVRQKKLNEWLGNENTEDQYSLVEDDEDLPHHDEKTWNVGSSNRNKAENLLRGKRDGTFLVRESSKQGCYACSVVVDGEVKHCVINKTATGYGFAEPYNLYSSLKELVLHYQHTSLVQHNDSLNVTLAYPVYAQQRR
From the text: (§1) The PI3K enzymes catalyse the phosphorylation of phosphatidylinositol 4,5-biphosphate (PIP2) to phosphatidylinositol 3,4,5-triphosphate (PIP3) in the presence of ATP and Mg^2+ ions. The PIP3 product can be detected by displacement of biotin-PIP3 from energy transfer complexes consisting of europium labelled anti-GST monoclonal antibody, a GST-tagged Pleckstrin homology (PH) domain, biotinylated PIP3 and streptavidin-allophycocyanin (APC) by the time-resolved fluorescence resonance energy transfer (TR-FRET) (HTRF®PI3K enzyme assay, Millipore). Excitation, at 330 nm, of europium in the complex results in an energy transfer to the APC and a fluorescent emission at 665 nm although europium itself emits at its characteristic wavelength of 620 nm. The PIP3 product formed by PI3K activity displaces biotin-PIP3 from the complex and results in a loss of energy transfer (decreasing signal).
(§2) The compound to be tested was added, at the desired final concentrations, to a mixture of PIP2 substrate and a recombinant PI3K enzyme (either α, β or δ isoforms, ex Millipore, or γ isoform [p110γ+p101 construct], ex United States Biological, Swampscott, Mass.) and the mixture incubated for 2 hr at RT. […] A stopping solution containing biotinylated PIP3 and the detection mix containing the GST tagged GRP1 pleckstrin homology (PH) domain and fluorophores were then added and the mixture was incubated at RT for 15-18 hr, prior to detection in a fluorescence microplate reader (Synergy 4, BioTek UK, Bedfordshire, UK).
(§3) The results were calculated according to the formula: APC signal (emission at 665 nm)/europium signal (emission at 620 nm)×10^4.

[3] = biological target: PI3K γ (Homo sapiens (Human), UniProt P48736); test: PI3K enzyme inhibition assay (HTRF TR-FRET); assay type: biochemical
Sequence of PI3K γ (P48736 whole entry, species assumed): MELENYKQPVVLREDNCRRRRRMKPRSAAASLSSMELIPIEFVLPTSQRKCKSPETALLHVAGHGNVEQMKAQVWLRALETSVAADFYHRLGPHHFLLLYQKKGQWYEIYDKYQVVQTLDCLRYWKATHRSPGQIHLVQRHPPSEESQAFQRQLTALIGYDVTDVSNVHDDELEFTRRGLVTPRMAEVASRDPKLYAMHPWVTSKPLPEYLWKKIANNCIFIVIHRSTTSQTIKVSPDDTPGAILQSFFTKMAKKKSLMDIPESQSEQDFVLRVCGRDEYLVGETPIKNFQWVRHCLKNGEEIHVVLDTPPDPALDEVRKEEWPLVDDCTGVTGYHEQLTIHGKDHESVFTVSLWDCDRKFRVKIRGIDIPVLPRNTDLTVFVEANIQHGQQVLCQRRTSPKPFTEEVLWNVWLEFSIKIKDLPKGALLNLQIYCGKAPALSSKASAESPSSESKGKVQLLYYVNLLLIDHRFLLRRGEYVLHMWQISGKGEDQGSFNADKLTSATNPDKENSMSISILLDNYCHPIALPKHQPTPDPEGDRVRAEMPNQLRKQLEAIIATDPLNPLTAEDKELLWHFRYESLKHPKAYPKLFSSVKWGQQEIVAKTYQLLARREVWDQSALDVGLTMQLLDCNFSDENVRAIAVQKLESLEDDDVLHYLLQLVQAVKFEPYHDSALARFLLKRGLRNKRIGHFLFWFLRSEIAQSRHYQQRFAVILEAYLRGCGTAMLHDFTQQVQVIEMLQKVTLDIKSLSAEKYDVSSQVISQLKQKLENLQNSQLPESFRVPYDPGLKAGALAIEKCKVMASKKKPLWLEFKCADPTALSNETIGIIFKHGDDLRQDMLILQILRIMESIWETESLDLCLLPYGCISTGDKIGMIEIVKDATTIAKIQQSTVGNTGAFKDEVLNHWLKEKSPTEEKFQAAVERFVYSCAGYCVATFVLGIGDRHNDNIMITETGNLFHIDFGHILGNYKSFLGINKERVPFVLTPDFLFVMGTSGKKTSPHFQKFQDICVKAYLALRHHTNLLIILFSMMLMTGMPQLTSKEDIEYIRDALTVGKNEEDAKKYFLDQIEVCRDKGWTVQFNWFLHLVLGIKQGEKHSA
Sequence of PI3K γ (Q8WYR1 whole entry partner, species assumed): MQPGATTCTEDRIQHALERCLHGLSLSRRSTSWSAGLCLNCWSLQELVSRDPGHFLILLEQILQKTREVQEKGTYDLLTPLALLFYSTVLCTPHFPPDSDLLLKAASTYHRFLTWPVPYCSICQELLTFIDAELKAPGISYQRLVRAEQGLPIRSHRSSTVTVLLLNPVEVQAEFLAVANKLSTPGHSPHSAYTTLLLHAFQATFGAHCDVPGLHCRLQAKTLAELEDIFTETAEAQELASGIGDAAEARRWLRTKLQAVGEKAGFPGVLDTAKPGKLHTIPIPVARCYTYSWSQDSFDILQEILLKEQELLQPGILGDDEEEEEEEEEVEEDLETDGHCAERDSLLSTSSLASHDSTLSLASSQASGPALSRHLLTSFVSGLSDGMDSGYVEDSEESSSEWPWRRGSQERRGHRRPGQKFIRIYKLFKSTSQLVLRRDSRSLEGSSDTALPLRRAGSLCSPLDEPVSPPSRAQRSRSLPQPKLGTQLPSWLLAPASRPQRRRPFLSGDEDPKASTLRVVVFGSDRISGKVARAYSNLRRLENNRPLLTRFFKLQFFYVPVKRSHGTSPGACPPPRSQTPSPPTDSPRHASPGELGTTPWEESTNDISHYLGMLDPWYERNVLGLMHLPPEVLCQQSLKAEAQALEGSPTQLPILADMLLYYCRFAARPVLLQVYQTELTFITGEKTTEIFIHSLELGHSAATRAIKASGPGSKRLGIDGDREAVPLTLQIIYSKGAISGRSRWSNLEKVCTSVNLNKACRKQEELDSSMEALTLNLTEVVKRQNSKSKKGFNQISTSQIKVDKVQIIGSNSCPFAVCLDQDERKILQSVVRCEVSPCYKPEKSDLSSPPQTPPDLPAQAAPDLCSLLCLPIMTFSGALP
From the text: as §1, §2, §3

[4] = biological target: PI3K α (Homo sapiens (Human), UniProt P42336); test: PI3K enzyme inhibition assay (HTRF TR-FRET); assay type: biochemical
Sequence of PI3K α (P42336 whole entry, species assumed): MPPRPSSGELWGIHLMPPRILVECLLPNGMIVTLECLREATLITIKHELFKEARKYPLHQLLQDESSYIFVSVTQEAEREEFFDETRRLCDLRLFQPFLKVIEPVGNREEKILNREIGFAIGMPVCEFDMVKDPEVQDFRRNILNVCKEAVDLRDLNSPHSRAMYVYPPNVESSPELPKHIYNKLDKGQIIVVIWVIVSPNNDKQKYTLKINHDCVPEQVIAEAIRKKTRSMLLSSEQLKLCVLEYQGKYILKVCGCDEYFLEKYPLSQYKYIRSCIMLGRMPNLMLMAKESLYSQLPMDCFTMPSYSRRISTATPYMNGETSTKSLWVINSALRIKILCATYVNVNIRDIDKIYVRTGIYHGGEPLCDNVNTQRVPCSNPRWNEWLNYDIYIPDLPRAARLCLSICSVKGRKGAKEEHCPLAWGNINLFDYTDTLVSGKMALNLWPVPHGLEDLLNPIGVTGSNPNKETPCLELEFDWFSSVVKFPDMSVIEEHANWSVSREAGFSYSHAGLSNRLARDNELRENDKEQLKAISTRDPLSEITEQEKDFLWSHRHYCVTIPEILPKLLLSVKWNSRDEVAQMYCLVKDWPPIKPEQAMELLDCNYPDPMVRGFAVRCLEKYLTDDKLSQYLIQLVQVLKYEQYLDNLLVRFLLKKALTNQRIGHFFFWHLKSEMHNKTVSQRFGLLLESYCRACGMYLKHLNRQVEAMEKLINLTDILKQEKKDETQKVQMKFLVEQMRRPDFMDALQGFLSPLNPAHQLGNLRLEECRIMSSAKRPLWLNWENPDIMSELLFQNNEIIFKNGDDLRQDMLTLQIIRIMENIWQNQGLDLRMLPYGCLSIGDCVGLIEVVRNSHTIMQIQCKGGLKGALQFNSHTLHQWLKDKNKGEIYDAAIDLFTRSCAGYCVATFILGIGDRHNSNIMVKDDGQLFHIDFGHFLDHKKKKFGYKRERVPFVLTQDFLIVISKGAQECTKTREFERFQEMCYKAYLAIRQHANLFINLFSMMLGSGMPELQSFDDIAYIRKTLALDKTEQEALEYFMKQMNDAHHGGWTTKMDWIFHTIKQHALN
Sequence of PI3K α (P27986 whole entry partner, species assumed): as the sequence (P27986 whole entry partner, species assumed) above
From the text: as §1, §2, §3

[5] = tested on: d-U937 cells; test: MTT assay, cell viability; assay type: cell-based, human; settings: 10 μg/mL
Protocol: PMA-differentiated U937 cells were pre-incubated with test compound (10 μg/mL) or vehicle for 4 hr in 5% FCS or 10% FCS for 24 hr. The supernatant was replaced with new media (200 μL) and MTT stock solution (10 μL, 5 mg/mL) was added to each well. After 1 hr incubation, the media were removed, 200 μL of DMSO was added to each well and the plates were shaken lightly for 1 hr prior to reading the absorbance at 550 nm. The percentage loss of cell viability was calculated for each well relative to vehicle (0.5% DMSO)-treatment.

[6] = biological target: PI3K β (Homo sapiens (Human), UniProt P42338); test: PI3K enzyme inhibition assay (HTRF TR-FRET); assay type: biochemical; settings: read-out: PI3 Kinase Inhibition IC50 value at state isozyme, β
From the text: as §1
The compound to be tested was added, at the desired final concentrations, to a mixture of PIP2 substrate and a recombinant PI3K enzyme (either α, β or δ isoforms, ex Millipore, or γ isoform [p110γ+p101 construct], ex United States Biological, Swampscott, Mass.) and the mixture incubated for 2 hr at RT. Following this incubation period, ATP (10 μM) was added to the enzyme/compound/PIP2 substrate mixture and the resulting mixture was incubated for a further 30 min at RT. A stopping solution containing biotinylated PIP3 and the detection mix containing the GST tagged GRP1 pleckstrin homology (PH) domain and fluorophores were then added and the mixture was incubated at RT for 15-18 hr, prior to detection in a fluorescence microplate reader (Synergy 4, BioTek UK, Bedfordshire, UK).
The results were calculated according to the formula: APC signal (emission at 665 nm)/europium signal (emission at 620 nm)×10^4. The percentage inhibition of each reaction was calculated relative to DMSO treated control, and the 50% inhibitory concentration (IC50 value) then calculated from the concentration-response curve.

[7] = tested on: cigarette smoke-induced cell accumulation and biomarkers in murine BALF; test: Cigarette smoke model; assay type: in vivo, mouse; settings: 0.3-10 mg/kg, p.o.

SMILES: CCC(=O)O[C@]1(C(=O)SCF)[C@H](C)C[C@H]2[C@@H]3C[C@H](F)C4=CC(=O)C=C[C@]4(C)[C@@]3(F)[C@@H](O)C[C@@]21C [fluticasone propionate, reference compound]
effect as monotherapy in cigarette smoke model (in words) [1]: lacks any significant effect

IC50 ([2]; read-out: IC50 Values for PI3K inhibition at isozyme indicated, PI3K δ): 5.7 nM
IC50 ([3]; read-out: IC50 Values for PI3K inhibition at isozyme indicated, PI3K γ): 120 nM
IC50 ([4]; read-out: IC50 Values for PI3K inhibition at isozyme indicated, PI3K α): 653 nM
SMILES: COCCOCCOCC#Cc1cccc2nc(Cn3nc(-c4cccc(O)c4)c4c(N)ncnc43)n(Cc3ccccc3F)c(=O)c12 [Example 50, 2-((4-amino-3-(3-hydroxyphenyl)-1H-pyrazolo[3,4-d]pyrimidin-1-yl)methyl)-3-(2-fluorobenzyl)-5-(3-(2-(2-methoxyethoxy)ethoxy)prop-1-ynyl) quinazolin-4(3H)-one, reference compound]

inhibition of PI3K δ compared with compound of formula (I) (in words) [2]: significantly less active
IC50 ([2]; read-out: PI3 Kinase Inhibition IC50 value at state isozyme, δ): 17 nM
inhibition of PI3K γ compared with compound of formula (I) (in words) [3]: significantly less active
IC50 ([3]; read-out: PI3 Kinase Inhibition IC50 value at state isozyme, γ): 577 nM
IC50 ([4]; read-out: PI3 Kinase Inhibition IC50 value at state isozyme, α): > 14200 nM
IC50 [6]: > 14200 nM
SMILES: Nc1ncnc2c1c(-c1cc(O)cc(F)c1)nn2Cc1nc2cccc(C#CCOCCOCCO)c2c(=O)n1Cc1ccccc1C(F)(F)F [Compound (Ia), 2-((4-Amino-3-(3-fluoro-5-hydroxyphenyl)-1H-pyrazolo[3,4-d]pyrimidin-1-yl)methyl)-5-(3-(2-(2-hydroxyethoxy)ethoxy)prop-1-yn-1-yl)-3-(2-(trifluoromethyl)benzyl)quinazolin-4(3H)-one]
Cell Viability MTT Assay in d-U937 cells at 4 hr ([5]; 4 hr): −ve (−ve indicates a value of <30% inhibition at 10 μg/mL)
Cell Viability MTT Assay in d-U937 cells at 24 hr ([5]; 24 hr): −ve (−ve indicates a value of <30% inhibition at 10 μg/mL)

SMILES: C[C@@H]1C[C@H]2[C@@H]3CCC4=CC(=O)C=C[C@]4(C)[C@@]3(F)[C@@H](O)C[C@]2(C)[C@@]1(O)C(=O)CO [dexamethasone]
activity in cigarette smoke model (in words) [7]: inactive
